{"source": "patent US9371265B2", "about": "“Compositions and methods related to inhibitors of JAK kinase” (EP PHARMA, INC., priority 2012, dated 2016)", "biological_target": "JAK3 (Homo sapiens, UniProt P52333)", "sequence (P52333 whole entry)": "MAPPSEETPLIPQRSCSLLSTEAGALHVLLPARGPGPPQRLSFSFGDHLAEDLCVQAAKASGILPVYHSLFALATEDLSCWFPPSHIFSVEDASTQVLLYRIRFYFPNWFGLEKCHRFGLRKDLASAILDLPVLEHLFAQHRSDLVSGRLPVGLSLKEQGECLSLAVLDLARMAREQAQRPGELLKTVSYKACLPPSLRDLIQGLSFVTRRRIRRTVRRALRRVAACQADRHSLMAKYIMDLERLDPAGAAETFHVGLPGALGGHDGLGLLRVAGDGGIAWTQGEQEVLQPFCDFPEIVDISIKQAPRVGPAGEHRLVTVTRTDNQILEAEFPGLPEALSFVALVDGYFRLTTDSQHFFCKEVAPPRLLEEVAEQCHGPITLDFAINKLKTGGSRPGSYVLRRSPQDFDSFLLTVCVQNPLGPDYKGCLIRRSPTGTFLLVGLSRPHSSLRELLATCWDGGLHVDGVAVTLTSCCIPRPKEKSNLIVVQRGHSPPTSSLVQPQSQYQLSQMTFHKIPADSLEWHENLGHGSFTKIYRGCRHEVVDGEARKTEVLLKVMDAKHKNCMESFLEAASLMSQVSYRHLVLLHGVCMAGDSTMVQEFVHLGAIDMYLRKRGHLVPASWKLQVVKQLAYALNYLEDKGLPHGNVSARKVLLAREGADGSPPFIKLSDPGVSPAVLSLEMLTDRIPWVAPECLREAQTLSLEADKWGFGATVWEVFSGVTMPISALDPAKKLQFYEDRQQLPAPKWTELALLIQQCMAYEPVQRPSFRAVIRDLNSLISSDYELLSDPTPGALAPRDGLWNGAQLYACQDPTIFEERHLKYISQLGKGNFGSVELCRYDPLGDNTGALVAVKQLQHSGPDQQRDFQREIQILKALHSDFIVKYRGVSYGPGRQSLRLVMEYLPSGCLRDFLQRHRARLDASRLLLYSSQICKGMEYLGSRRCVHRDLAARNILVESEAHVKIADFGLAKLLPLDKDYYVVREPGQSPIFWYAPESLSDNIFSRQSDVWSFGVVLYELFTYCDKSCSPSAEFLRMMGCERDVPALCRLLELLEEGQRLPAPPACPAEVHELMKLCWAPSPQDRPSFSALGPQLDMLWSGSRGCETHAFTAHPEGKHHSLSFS", "test": "Constitutive JAK3 tyrosine phosphorylation in SU-DHL-1 cells (IP/Western blot)", "assay_type": "cell-based", "parameters": "cellular JAK3 and JAK2 tyrosine phosphorylation levels detected by Western blot analysis; endogenous in cells", "details": "20 μM EP009, 12 hours, vs vehicle", "text": "FIGS. 6A-6B. EP009 treatment disrupts constitutive JAK3/STAT3 pathway activation and down-regulates CD30 cell surface expression in human ALCL cells. (A) Kit225 (lane a), SUP-M2 (lane b), Karpas299 (lane c), DEL (lane d) and SU-DHL-1 (lane e) total cell lysates were separated by 7.5% SDS-PAGE (upper panel) or were immunoprecipitated (IP) with JAK3 antibodies (lower panel) and separated on 7.5% SDS-PAGE, and then subjected to Western blot (WB) analysis with the indicated antibodies. (B) SU-DHL-1 cells were treated with vehicle (PBS; lane a) or increasing amounts of EP009 (0-40 μM; lanes b-e) for 12 hours. Cells were then lysed, clarified, and immunoprecipitated (IP) with anti-JAK3 (α-JAK3), and subjected to Western blot (WB) analysis with anti-phosphotyrosine (α-pY). Blots were stripped and reprobed with α-JAK3 to verify equivalent protein loading. (C) SU-DHL-1 cells were treated with vehicle (PBS) or increasing amounts of EP009 (0-40 μM) for 12 hours. […] Values represent pSTAT mean fluorescence intensity (MFI) normalized to corresponding GAPDH MFI, while error bars represent the standard deviation (n=2). Statistical significance was determined using Student's t-test. […] Cells were then analyzed by flow cytometry for CD30 expression. […]", "data": [{"compound": "C=C1CCCCCCCCCC(CO)C1=O", "note": "(stereo not shown) [EP009, 2-(Hydroxymethyl)-12-methylenecyclododecanone]", "values": [{"measurement": "decrease in JAK3 tyrosine phosphorylation levels", "result": 70, "unit": "%"}]}]}
